Patent US9371365B2, “Modified compstatin with peptide backbone and C-terminal modifications” (The Trustees of the University of Pennsylvania, priority 2009, dated 2016)
Where two headings read alike, the source gives them in different places. Bridge positions count the residues as written; N and C are the ends. Square brackets hold non-standard residues; d marks the D form. Peptide text beside a SMILES is read from it. Trp(1-Me) = Cn1cc(C[C@H](N)C(=O)O)c2ccccc21; Nle = CCCC[C@H](N)C(=O)O; Sar = CNCC(=O)O

Key:
C3b = target: T1, C3b (Homo sapiens, UniProt P01024); experiment: SPR analysis of binding kinetics to immobilized C3b; conditions: for Kd / Koff / Kon: Table 2-1; for kd: 25° C., PBS-T; for kon: pH 7.4, read-out: ka; for rKD SPR / rka / rkd: relative to peptide 14
T1 construct: biotin (chemical biotinylation of C3b)
Protocol: (§1) The kinetics of the interaction between C3b and each compstatin analog was analyzed by SPR on a Biacore 3000 instrument (GE Healthcare Corp., Piscataway, N.J.) at 25° C. using PBS-T (10 mM sodium phosphate, 150 mM NaCl, 0.005% Tween-20, pH 7.4) as the running buffer, as described above. In brief, biotinylated C3b (30 μg/mL) was immobilized on a streptavidin-coated sensor chip, and a two-fold serial dilution series (1 μM-500 pM) of each analog was injected for 2 min at 30 μl/min, with a dissociation phase of 5-10 min. Peptide [Trp(Me)^4]-Ac-compstatin was included in each experimental series as an internal control and reference. Data analysis was performed using Scrubber (BioLogic Software, Campbell, Australia). The signals from an untreated flow cell and an ensemble of buffer blank injections were subtracted to correct for buffer effects and injection artifacts. Processed biosensor data were globally fitted to a 1:1 Langmuir binding model, and the equilibrium dissociation constant (KD) was calculated from the equation KD=kd/ka. Peptide solutions were injected in duplicate in every experiment, and each screening assay was performed at least twice.
as §1, with “in Example 1.” for “above.”, “μg/ml)” for “μg/mL)”, “Peptide [Trp(Me)^4]-Ac-compstatin was included in each experimental series as an internal control and reference.” left out

[1] = In vivo retention: plasma half-life in baboons by LC-MS/MS; design: species or system baboon (P. Anubis); conditions: for half-life: baboon (P. Anubis)
Protocol: A 96-well plate HLB Oasis 10 mg (Waters, Milford, Mass.) was employed for extraction. The SPE material was conditioned by addition of 500 μl of methanol followed by addition of 500 μL of milli-Q water. Sample was prepared by addition of the internal standard followed by 1:1 dilution with 4% H3PO4. After loading the sample, washing was carried out with 500 μL of 5% methanol in 0.1% formic acid. Sample was eluted with 150 μL of 65% methanol in 0.1% formic acid and collected in the collection plate. Solvent was evaporated to dryness in a speed-vac concentrator and reconstituted in 5% acetonitrile in 0.1% formic acid. Samples were kept at −20° C. until analysis.
Baboon plasma samples, 40 μL, were mixed with internal standard and dissolved 1:1 with 40 mM ammonium carbonate buffer. Rapigest detergent was added to a final concentration of 0.1%. Disulfide bridges were reduced in 5 mM DTT for 30 min at 60° C. Alkylation of cysteines was done by addition of iodoacetamide to a final concentration of 15 mM and incubation for 30 min in dark. The sample was enzymatically digested by addition of 16 μL of a 1 μG/μL trypsin solution and incubation overnight at 37° C. After that, the sample pH was lowered with 5% TFA to induce detergent degradation. To avoid nonspecific adsorption of very hydrophobic peptides, acetonitrile was added to 20%. The samples were centrifuged at 6° C. and 14000 rpm for 30 min and the supernatant was diluted with 0.1% formic acid to reduce acetonitrile concentration to 10% prior to filtration with a 10 kDa cut-off microcon centrifugal filter (Millipore, Billerica, Mass.). The filter was washed with 50 μL of 10% ACN in 0.1% formic acid and the collected sample was evaporated to dryness and reconstituted with 10% ACN in 0.1% formic acid.
LC-MS/MS analysis was performed on a SYNAPT HDMS (Waters, Milford, Mass.) controlled by MassLynx 4.1 software (Waters) and equipped with a nanoESI source. Each sample was injected in triplicate. A nanoACQUITY UPLC (Waters) system was used for peptide separation by reversed-phase liquid chromatography. After injection, analytes were trapped for 3 min with 3% mobile phase A (0.1% formic acid in water) at 5 μl/min on a 5 μm Symmetry C18 column (180 μm×20 mm, Waters) and further separated on a 1.7 μm BEH130 C18 column (75 μm×150 mm, Waters). The analytical column temperature was held at 35° C. Peptides were separated at flow rate 0.3 μl/min. The gradient was linear 3-40% B (0.1% formic acid in acetonitrile), either 50 min long, or 60 min for the digested samples. The capillary voltage was 3.2 kV, the cone voltage was 35 V and the source temperature was 100° C. [Glu1]-fibrinogen peptide was used for lock-mass correction with a sampling rate of 30 s. Mass spectra were acquired in positive mode over an m/z range 400-2000 Da at scan rate 0.6 s. The time window used for the MS/MS function was ±3 min of the retention time of the selected peptide. The presence of the analyte was confirmed by MS/MS. Selectivity was studied by analysis of blank samples to determine the presence of any interference coeluting with the analyte.
Juvenile baboons (P. Anubis, Baboon Research Resources, University of Oklahoma) weighing 5-8 kg were used. Three baboons were used for the study; one for each compound. All animals received a bolus dose of peptides (10 mg) by injection through the peripheral vein. […]

[2] = tested on: classical pathway of complement; experiment: Inhibition of classical pathway complement activation, ELISA in human serum; format: biochemical; conditions: for IC50: read-out: IC50; for rP: relative potency compared to peptide 14
Protocol: The ability of the compstatin analogs to inhibit the activation of the classical pathway of complement was assessed by ELISA (Mallik et al., 2005, J Med Chem 48:274-86). In brief, complement was activated in human serum using an antigen-antibody complex in the presence or absence of compstatin analogs, and the deposition of C3 fragments on the plate surface was detected using an HRP-conjugated polyclonal anti-C3 antibody. […] The percent inhibition was plotted against the peptide concentration, and the resulting data set was fitted to the logistic dose-response function using Origin 7.0 software. IC50 values were obtained from the fitted parameters that produced the lowest χ^2 value. Each analog was assayed at least three to seven times.
The ability of the compstatin analogs to inhibit the activation of the classical pathway of complement was assessed by ELISA as described in Example 1. Each conjugate was assayed at least three times.

C3 = target: T2, C3 (Homo sapiens, UniProt P01024); experiment: ITC analysis of binding to C3
T2 construct: C3 was purified from fresh human plasma; from tissue; host or cells: fresh human plasma (blood bank of the Hospital of the University of Pennsylvania)
Protocol: C3 was purified from fresh human plasma obtained from the blood bank of the Hospital of the University of Pennsylvania. In brief, the plasma was fractionated with 15% (w/v) PEG 3350, and the pellet was resuspended in 20 mM phosphate buffer, pH 7.8, and then subjected to anion-exchange chromatography on a DEAE-HR 40 column (50×5 cm; Millipore Inc., Billerica, Mass.) with the same buffer. Proteins were eluted with 6 L of a linear gradient (15-70%) of 20 mM phosphate buffer, pH 7.8, containing 500 mM NaCl. C3 was further purified on a size-exclusion Superdex 200 26/60 column (Amersham Biosciences) and a Mono S column (Amersham Biosciences) to separate C3 from C3(H2O).
All titrations were performed in PBS (10 mM phosphate buffer with 150 mM NaCl, pH 7.4) at 25° C. using multiple peptide injections of 2-7 μL each. The raw isotherms were corrected for the heats of dilution by subtracting the isotherms representing peptide injections into the buffer. The resulting isotherms were fitted to a single site of sites models using Origin 7.0 software, and the model that produced the lowest χ^2 value was deemed to be appropriate for the respective data set. The Gibbs free energy was calculated as ΔG=ΔH−TΔS. Each experiment was repeated at least twice.

[3] = tested on: classical pathway of complement; conditions: data from Sahu et al., 1996; cited from earlier work

T1 sequence (P01024 23-667 limits assumed): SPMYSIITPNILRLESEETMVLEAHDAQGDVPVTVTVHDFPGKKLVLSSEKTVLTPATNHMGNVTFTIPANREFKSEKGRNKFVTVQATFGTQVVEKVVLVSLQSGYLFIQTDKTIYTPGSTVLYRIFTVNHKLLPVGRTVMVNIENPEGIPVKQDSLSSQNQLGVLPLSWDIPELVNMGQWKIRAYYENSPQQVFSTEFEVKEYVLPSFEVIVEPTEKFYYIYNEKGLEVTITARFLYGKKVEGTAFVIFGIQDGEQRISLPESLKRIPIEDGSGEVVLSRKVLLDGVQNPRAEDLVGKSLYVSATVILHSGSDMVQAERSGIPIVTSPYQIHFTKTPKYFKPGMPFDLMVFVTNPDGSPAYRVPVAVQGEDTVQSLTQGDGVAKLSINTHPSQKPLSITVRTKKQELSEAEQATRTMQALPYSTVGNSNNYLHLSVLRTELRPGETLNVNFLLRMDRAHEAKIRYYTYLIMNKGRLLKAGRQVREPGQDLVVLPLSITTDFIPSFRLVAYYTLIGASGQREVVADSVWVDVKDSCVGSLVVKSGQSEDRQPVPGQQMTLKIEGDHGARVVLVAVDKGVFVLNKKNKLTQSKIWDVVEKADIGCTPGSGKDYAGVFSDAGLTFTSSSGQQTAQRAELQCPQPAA
T1 sequence (P01024 749-1663 limits assumed): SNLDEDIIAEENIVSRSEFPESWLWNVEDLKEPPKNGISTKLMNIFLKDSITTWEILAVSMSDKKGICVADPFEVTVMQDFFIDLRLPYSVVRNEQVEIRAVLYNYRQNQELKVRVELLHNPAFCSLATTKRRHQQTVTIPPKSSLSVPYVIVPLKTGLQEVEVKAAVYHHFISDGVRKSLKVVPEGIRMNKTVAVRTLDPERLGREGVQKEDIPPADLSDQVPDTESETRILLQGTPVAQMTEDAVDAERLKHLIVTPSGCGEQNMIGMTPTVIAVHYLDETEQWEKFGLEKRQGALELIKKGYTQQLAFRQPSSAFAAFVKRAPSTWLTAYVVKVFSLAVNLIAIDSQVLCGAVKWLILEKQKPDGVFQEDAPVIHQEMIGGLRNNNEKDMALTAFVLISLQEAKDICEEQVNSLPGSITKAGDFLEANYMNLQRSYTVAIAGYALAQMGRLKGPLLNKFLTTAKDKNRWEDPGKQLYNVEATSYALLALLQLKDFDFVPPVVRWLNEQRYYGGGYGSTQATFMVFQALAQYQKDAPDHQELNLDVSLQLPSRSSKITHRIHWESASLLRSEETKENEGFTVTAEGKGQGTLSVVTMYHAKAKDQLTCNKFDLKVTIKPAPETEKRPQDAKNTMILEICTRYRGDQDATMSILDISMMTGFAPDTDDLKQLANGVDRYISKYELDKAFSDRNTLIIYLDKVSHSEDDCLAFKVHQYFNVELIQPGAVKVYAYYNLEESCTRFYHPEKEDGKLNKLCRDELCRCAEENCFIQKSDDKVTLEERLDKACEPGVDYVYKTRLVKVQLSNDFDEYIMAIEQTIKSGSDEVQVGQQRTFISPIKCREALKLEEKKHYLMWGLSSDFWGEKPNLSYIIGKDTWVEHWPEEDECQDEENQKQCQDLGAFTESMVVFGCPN
T2 sequence (P01024 23-667 limits assumed): as the sequence (P01024 23-667 limits assumed) above
T2 sequence (P01024 672-1663 limits assumed): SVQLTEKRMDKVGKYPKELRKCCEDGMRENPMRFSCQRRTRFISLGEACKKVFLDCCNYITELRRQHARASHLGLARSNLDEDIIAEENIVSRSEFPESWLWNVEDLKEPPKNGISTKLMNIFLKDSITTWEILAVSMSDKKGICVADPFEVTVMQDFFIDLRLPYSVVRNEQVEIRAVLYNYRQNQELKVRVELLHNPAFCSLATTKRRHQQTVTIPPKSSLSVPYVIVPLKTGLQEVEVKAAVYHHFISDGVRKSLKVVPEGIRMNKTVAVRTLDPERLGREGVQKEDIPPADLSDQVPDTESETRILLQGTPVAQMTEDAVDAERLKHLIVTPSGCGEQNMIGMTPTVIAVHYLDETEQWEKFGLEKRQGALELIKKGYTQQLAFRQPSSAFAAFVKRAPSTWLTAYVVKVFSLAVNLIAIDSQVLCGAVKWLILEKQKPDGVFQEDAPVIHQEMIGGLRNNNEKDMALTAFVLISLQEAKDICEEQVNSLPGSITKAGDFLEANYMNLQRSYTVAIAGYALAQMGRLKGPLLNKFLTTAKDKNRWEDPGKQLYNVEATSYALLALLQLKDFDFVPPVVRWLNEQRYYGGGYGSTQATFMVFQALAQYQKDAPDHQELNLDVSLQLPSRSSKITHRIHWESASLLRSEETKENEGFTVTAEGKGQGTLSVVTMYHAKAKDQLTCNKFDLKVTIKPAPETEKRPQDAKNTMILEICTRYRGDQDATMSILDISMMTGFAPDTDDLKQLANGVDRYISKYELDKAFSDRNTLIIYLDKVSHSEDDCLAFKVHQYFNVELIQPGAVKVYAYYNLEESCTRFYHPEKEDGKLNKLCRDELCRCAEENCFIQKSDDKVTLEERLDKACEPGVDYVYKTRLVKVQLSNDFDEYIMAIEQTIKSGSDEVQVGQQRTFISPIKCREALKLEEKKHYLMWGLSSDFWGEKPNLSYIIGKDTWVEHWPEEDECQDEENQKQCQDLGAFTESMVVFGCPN

| Kd (C3b; SPR) | Koff (C3b; SPR) | Kon (C3b; SPR) | Molecule | kd (C3b; SPR) | kon (C3b) | rKD SPR (C3b) | rka (C3b) | rkd (C3b) | IC50 ([2]; Table 1-2) | IC50 ([2]; exemplary analogs table) | rP [2] | further results |
| --- | --- | --- | --- | --- | --- | --- | --- | --- | --- | --- | --- | --- |
| 4.7 nM | 5.6 10^−3, s^−1 | 1.2 10^6, M^−1 · s^−1 | CC[C@H](C)[C@H](NC(C)=O)C(=O)N[C@H]1CSSC[C@@H](C(=O)N[C@H](C(=O)NCCOCCOCCOCC(=O)NCCOCCOCCOCC(=O)N[C@@H](CCCCNC(=O)CCNS(=O)(=O)c2ccc3ccccc3c2)C(N)=O)[C@@H](C)CC)NC(=O)[C@H](CCCNC(=N)N)NC(=O)[C@H](Cc2c[nH]cn2)NC(=O)[C@H](C)NC(=O)CN(C)C(=O)[C@H](Cc2c[nH]c3ccccc23)NC(=O)[C@H](CC(=O)O)NC(=O)[C@H](CCC(N)=O)NC(=O)[C@H](Cc2cn(C)c3ccccc23)NC(=O)[C@H](C(C)C)NC1=O [Peptide 17-ABM] | – | – | – | – | – | – | – | – | half-life ([1]; in vivo, iv, 10 mg): 5 h; fold improvement of half-life ([1]; in vivo): 5 fold |
| 32 nM | 3.6 10^−3, s^−1 | 0.1 10^6, M^−1 · s^−1 | CC[C@H](C)[C@H](NC(C)=O)C(=O)N[C@H]1CSSC[C@@H](C(=O)N[C@H](C(=O)NCCOCCOCCOCC(=O)NCCOCCOCCOCC(=O)N[C@@H](CCCCNC(=O)Cn2cc(C(=O)N[C@@H](CCCNC(=N)N)C(=O)N[C@@H](CC(C)C)C(=O)N[C@H](C(=O)N[C@@H](CCC(=O)O)C(=O)N[C@@H](CC(=O)O)C(=O)N[C@H](C(=O)N[C@H]3CSSC[C@@H](C(=O)N[C@@H](CC(C)C)C(=O)N[C@@H](Cc4c[nH]c5ccccc45)C(=O)N[C@@H](CCC(=O)O)C(=O)N[C@@H](CC(=O)O)C(=O)N[C@@H](CC(=O)O)C(N)=O)NC(=O)CNC(=O)[C@H](Cc4c[nH]c5ccccc45)NC(=O)[C@H](CCCNC(=N)N)NC(=O)[C@@H]4CCCN4C(=O)[C@H](CC(C)C)NC3=O)[C@@H](C)CC)[C@@H](C)CC)nn2)C(N)=O)[C@@H](C)CC)NC(=O)[C@H](CCCNC(=N)N)NC(=O)[C@H](Cc2c[nH]cn2)NC(=O)[C@H](C)NC(=O)CN(C)C(=O)[C@H](Cc2c[nH]c3ccccc23)NC(=O)[C@H](CC(=O)O)NC(=O)[C@H](CCC(N)=O)NC(=O)[C@H](Cc2cn(C)c3ccccc23)NC(=O)[C@H](C(C)C)NC1=O [Peptide 17-ABP] | – | – | – | – | – | – | – | – | half-life ([1]; in vivo, baboon, intravenous bolus 10 mg, read-out: plasma half-life (converted)): 21 h; fold improvement of half-life ([1]; relative to unconjugated peptide 17, baboon): 21 fold |
| – | – | – | CCCC[C@H](NC(=O)[C@@H]1CSSC[C@H](NC(=O)[C@@H](NC(C)=O)[C@@H](C)CC)C(=O)N[C@@H](C(C)C)C(=O)N[C@@H](Cc2cn(C)c3ccccc23)C(=O)N[C@@H](CCC(N)=O)C(=O)N[C@@H](CC(=O)O)C(=O)N[C@@H](Cc2c[nH]c3ccccc23)C(=O)N(C)CC(=O)N[C@@H](C)C(=O)N[C@@H](Cc2c[nH]cn2)C(=O)N[C@@H](CCCNC(=N)N)C(=O)N1)C(N)=O [Peptide 19, Ac−Ic[CV(^1−MeW)QDW(^N−MeG)AHRC](Nle)-NH2] (Ac-ICV[Trp(1-Me)]QDW[Sar]AHRC[Nle]-NH2; disulfide 2-12) | 6.6 10^−3/s | 1.5e+06 M⁻¹ s⁻¹ | 2.7 | 1.5 | 1.7 | 109 nM | 109 nM | 1.9 | – |
| – | – | – | CC[C@H](C)[C@H](NC(C)=O)C(=O)N[C@H]1CSSC[C@@H](C(=O)N(C)[C@H](C(N)=O)[C@@H](C)CC)NC(=O)[C@H](CCCNC(=N)N)NC(=O)[C@H](Cc2c[nH]cn2)NC(=O)[C@H](C)NC(=O)CN(C)C(=O)[C@H](Cc2c[nH]c3ccccc23)NC(=O)[C@H](CC(=O)O)NC(=O)[C@H](CCC(N)=O)NC(=O)[C@H](Cc2cn(C)c3ccccc23)NC(=O)[C@H](C(C)C)NC1=O [Peptide 21, Ac−Ic[CV(^1−MeW)QDW(^N−MeG)AHRC](^N−MeI)-NH2] | 3.5 10^−3/s | 1.5e+06 M⁻¹ s⁻¹ | 5.2 | 1.5 | 3.2 | 62 nM | 62 nM | 3.3 | ΔH (C3; ITC): -17.1 kcal/mol; −TΔS (C3; ITC): 5.7 kcal/mol; ΔG (C3; ITC, ΔG=ΔH−TΔS): -11.4 kcal/mol; rKD ITC (C3; relative to peptide 14): 3.3; ΔΔG (C3; relative to peptide 14): -0.7 kcal/mol; ΔΔH (C3; relative to peptide 14): 0.5 kcal/mol; −TΔΔS (C3; relative to peptide 14): -1.3 kcal/mol; fold stronger affinity than peptide 14 (C3b; SPR): more than 5 fold |
| – | – | – | Ac-I[CVYQDWGAHRC]T-NH2 [Peptide 1, reference compound] | – | – | – | – | – | – | – | – | IC50 [3]: 2400 nM; IC50-fold change ([2]; relative to peptide 1, NA: not active): 1 |
